Measured values taken from patent publication US20230061319A1, “METHODS OF TREATING TUMORS” (CoImmune, Inc., priority 2020, published 2023).

Assays:
[1] = tested on: healthy donor PBMC T cells; experiment: Two-way MLR of HLA-mismatched healthy donor PBMCs with mRCC patient plasma with or without everolimus; format: cell-based, human; settings: MLR 7 days, 2% mRCC patient plasma
Experimental: PBMCs and DCs were thawed and washed in PBS (Lonza) prior to counting. Post maturation electroporated monocyte-derived dendritic cells (PME-CD40L) were generated from healthy donors as described in DeBenedette MA. et al., J Immunol. 181(8):5296-5305 (2008) (incorporated herein by reference in its entirety), and were co-electroporated with RNA encoding the pp65 CMV protein and RNA encoding CD40L. Viable cell counts were performed using BD TruCount Absolute Counting Tubes and propidium iodide (BD Biosciences) by flow cytometry. PBMCs and DCs were re-suspended in X-Vivo15 (with gentamicin and phenol red) (Lonza) containing 10% normal human AB serum (Valley biomedical). […] Frozen PBMC vials from 2 HLA-mismatched healthy donors were thawed and counted. […] Purified Mouse anti-human CD3 (clone OKT3, BD Biosciences) was used to stimulate healthy donor PBMCs in culture.
Given the observation that patients enrolled in the ADAPT study who received everolimus as 2nd line therapy after receiving DC therapy had better clinical outcomes, the concept that everolimus may reverse the immune suppressive activity of mRCC patient plasma and augment T cell responses was investigated. HLA-mismatched healthy donor PBMCs were mixed and cultured for 7 days in the presence of 2% mRCC patient plasma and with or without 20 ng of everolimus added on day 0, and the frequency of CD28^+ memory T cells was determined. […] However, this restoration was not statistically significant (p<0.087) when the suppressive activity of plasma samples collected from six individual mRCC patients was tested (FIG. 17C). In contrast, an increase in the frequency of proliferating CD28^-CD4 T cells was […] with plasma addition, which could be reversed with the addition of everolimus (FIG. 17D). A similar pattern was detected for CD8 T cells (a decrease in the frequency of proliferating CD28^+ CD8 T cells (FIG. 17E) and increase in the frequency of proliferating CD28^-CD8 T cells (FIG. 17F)) in the presence of plasma, which the addition of everolimus could reverse. […] To expand the understating whereby everolimus can reduce the immune suppressive impact of mRCC, patient plasma PBMCs were stimulated with autologous DCs presenting the pp65 CMV antigen. Healthy donor PBMCs and autologous DCs were mixed and cultured for 6 days in the presence of 2% mRCC patient plasma and with or without 20 ng of everolimus added on day 0. A small but reproducible frequency of proliferating CD28^+ CD4 T cells was induced, but very few CD28^-CD4 T cells (FIG. 18A left panel), which is unlike the CD4 T cell response seen in the MLR. […] A low frequency of proliferating CD28^- CD4 T cells was detected, and everolimus has little impact on the frequency of these cells (FIG. 18D).
Given the observation that plasma suppression selectively impacts the frequency of CD28^+ T cells and everolimus mediates a reduced suppression of this memory phenotype, the CD28^+ T cell subset was further characterized. HLA-mismatched healthy donor PBMCs were mixed and cultured for 7 days in the presence of 2% mRCC patient plasma and with or without 20 ng of everolimus added on day 0. […] Both the expression of CD25 and CD28 receptors on T cells are critical for full differentiation of memory T cells.
To understand the ability of everolimus to restore the frequency of CD25^+CD28^+ T cells, the expression of both CD25 and CD28 on CD8 T cells stimulated in the MLR or with autologous DCs in the presence of mRCC patient plasma was measured by the geometric mean fluorescence intensity (MFI).

[2] = than rapamycin (sirolimus); cited from earlier work
[3] = 20 ng everolimus, statistically significant, six plasma samples

**Q.** For CO[C@H]1C[C@@H]2CC[C@@H](C)[C@@](O)(O2)C(=O)C(=O)N2CCCC[C@H]2C(=O)O[C@H]([C@H](C)C[C@@H]2CC[C@@H](OCCO)[C@H](OC)C2)CC(=O)[C@H](C)/C=C(\C)[C@@H](O)[C@@H](OC)C(=O)[C@H](C)C[C@H](C)/C=C/C=C/C=C/1C [everolimus], which “expression of CD25 on CD8 T cells (MFI)” value ([1]; 20 ng everolimus) is on record?
**A.** The value was “statistically significant increase”.

**Q.** What about the “expression of CD28 on CD8 T cells (MFI)” value ([1]; 20 ng everolimus) of the same molecule?
**A.** Its value is “statistically significant increase”.

**Q.** What about the “plasma-induced change in frequency of proliferating CD28- CD4 T cells” value ([1]; 20 ng everolimus on day 0) of the same molecule?
**A.** Its value is “reversed”.

**Q.** What about the “frequency of proliferating CD28+ CD4 T cells reduced by mRCC patient plasma” value ([1]; 20 ng everolimus on day 0, not statistically significant (p<0.087), six plasma samples) of the same molecule?
**A.** The value was “partially restored”.

**Q.** What about the “frequency of CD25+CD28- CD8 T cells among CD25+ CD8 T cells” value ([1]; 20 ng everolimus, p< 0.001) of the same molecule?
**A.** The value was “no longer represented the dominant population”.

**Q.** And the “frequency of CD25+CD28+ CD8 T cells” value ([1]; 20 ng everolimus, p< 0.0061)?
**A.** The value was “partial restoration”.

**Q.** And the “frequency of CD25+CD28+ CD4 T cells” value ([1]; 20 ng everolimus, p< 0.045)?
**A.** Its value is “partial restoration”.

**Q.** What about the “plasma-induced decrease in frequency of proliferating CD28+ CD8 T cells” value [1, 3] of the same molecule?
**A.** The value was “reverse”.

**Q.** And the “plasma-induced increase in frequency of proliferating CD28- CD8 T cells” value [1, 3]?
**A.** The value was “reverse”.

**Q.** What about the side effects [2] of the same molecule?
**A.** The side effects was “fewer”.
